According to patent US20100267561A1, “HERBICIDAL PYRIDAZINONE DERIVATIVES” (priority 2007, published 2010):

Key:
Type in all cases: in vivo
rice (Oryza sativa) = test: Test B flooded paddy test plant response
Text: (§1) Plant species in the flooded paddy test consisted of rice (Oryza sativa), umbrella sedge (Cyperus difformis), ducksalad (Heteranthera limosa) and barnyardgrass (Echinochloa crus-galli) grown to the 2-leaf stage for testing. At time of treatment, test pots were flooded to 3 cm above the soil surface, treated by application of test compounds directly to the paddy water, and then maintained at that water depth for the duration of the test. Treated plants and controls were maintained in a greenhouse for 13 to 15 days, after which time all species were compared to controls and visually evaluated. Plant response ratings, summarized in Table B, are based on a scale of 0 to 100 where 0 is no effect and 100 is complete control. A dash (-) response means no test result.

[1] = tested on: umbrella sedge (Cyperus difformis); test: Test B flooded paddy test plant response
Text: as §1

[2] = tested on: barnyardgrass (Echinochloa crus-galli); test: Test B flooded paddy test plant response
Text: as §1

[3] = tested on: ducksalad (Heteranthera limosa); test: Test B flooded paddy test plant response
Text: as §1

[4] = tested on: large crabgrass (Digitaria sanguinalis); test: Test A pre-/postemergence plant response
Text: (§2) Seeds of species selected from barnyardgrass (Echinochloa crus-galli), large crabgrass (Digitaria sanguinalis), giant foxtail (Setaria faberi), blackgrass (Alopecurus myosuroides), canarygrass (Phalaris minor), morningglory (Ipomoea coccinea), pigweed (Amaranthus retroflexus), velvetleaf (Abutilon theophrasti), wheat (Triticum aestivum), and corn (Zea mays) were planted into a blend of loam soil and sand and treated preemergence with a directed soil spray using test chemicals formulated in a non-phytotoxic solvent mixture which included a surfactant. At the same time these species were also treated with postemergence applications of test chemicals formulated in the same manner.
(§3) Plants ranged in height from 2 to 10 cm and were in the one- to two-leaf stage for the postemergence treatment. Treated plants and untreated controls were maintained in a greenhouse for approximately 10 days, after which time all treated plants were compared to untreated controls and visually evaluated for injury. Plant response ratings, summarized in Table A, are based on a 0 to 100 scale where 0 is no effect and 100 is complete control. A dash (-) response means no test results.

corn (Zea mays) = test: Test A pre-/postemergence plant response
Text: as §2, §3

[5] = tested on: morningglory (Ipomoea coccinea); test: Test A pre-/postemergence plant response
Text: as §2, §3

[6] = tested on: barnyardgrass (Echinochloa crus-galli); test: Test A pre-/postemergence plant response
Text: as §2, §3

[7] = tested on: wheat (Triticum aestivum); test: Test A pre-/postemergence plant response
Text: as §2, §3

[8] = tested on: pigweed (Amaranthus retroflexus); test: Test A pre-/postemergence plant response
Text: as §2, §3

[9] = tested on: velvetleaf (Abutilon theophrasti); test: Test A pre-/postemergence plant response
Text: as §2, §3

[10] = tested on: giant foxtail (Setaria faberi); test: Test A pre-/postemergence plant response
Text: as §2, §3

[11] = Flood (flooded paddy test), 62 g ai/ha, scale 0 to 100, 0 no effect, 100 complete control
[12] = Flood (flooded paddy test), 125 g ai/ha, scale 0 to 100, 0 no effect, 100 complete control
[13] = Flood (flooded paddy test), 250 g ai/ha, scale 0 to 100, 0 no effect, 100 complete control
[14] = Flood, 31 g ai/ha, scale 0 to 100
[15] = Postemergence, 125 g ai/ha, 0 to 100 scale, 0 no effect, 100 complete control
[16] = Postemergence, 500 g ai/ha, 0 to 100 scale, 0 no effect, 100 complete control
[17] = Preemergence, 125 g ai/ha, 0 to 100 scale (0 no effect, 100 complete control)
[18] = Preemergence, 500 g ai/ha, 0 to 100 scale (0 no effect, 100 complete control)

Cc1cc(-c2ccc(OC(F)(F)F)cc2)nn1-c1c(O)cnn(C)c1=O [Compound 14]
20: Plant response rating, Rice (rice (Oryza sativa); [13]) | Plant response rating, Barnyardgrass [2, 12] | Plant response rating, Barnyardgrass [2, 13] | Plant response rating, Velvetleaf [9, 18]
90: Plant response rating, Crabgrass, Large [4, 16] | Plant response rating, Crabgrass, Large [4, 18]
60: Plant response rating, Sedge, Umbrella [1, 11] | Plant response rating, Sedge, Umbrella [1, 13] | Plant response rating, Crabgrass, Large [4, 15] | Plant response rating, Corn (corn (Zea mays); [18])
70: Plant response rating, Crabgrass, Large [4, 17] | Plant response rating, Barnyardgrass [6, 15] | Plant response rating, Barnyardgrass [6, 17] | Plant response rating, Wheat [7, 16]
80: Plant response rating, Corn (corn (Zea mays); [16]) | Plant response rating, Wheat [7, 18] | Plant response rating, Foxtail, Giant [10, 15] | Plant response rating, Foxtail, Giant [10, 17]
40: Plant response rating, Ducksalad [3, 12] | Plant response rating, Ducksalad [3, 13] | Plant response rating, Corn (corn (Zea mays); [15]) | Plant response rating, Wheat [7, 15]
100: Plant response rating, Barnyardgrass [6, 16] | Plant response rating, Barnyardgrass [6, 18] | Plant response rating, Foxtail, Giant [10, 16] | Plant response rating, Foxtail, Giant [10, 18]
0: Plant response rating, Rice (rice (Oryza sativa); [11]) | Plant response rating, Rice (rice (Oryza sativa); [12]) | Plant response rating, Rice (rice (Oryza sativa); [14]) | Plant response rating, Sedge, Umbrella [1, 14] | Plant response rating, Barnyardgrass [2, 11] | Plant response rating, Barnyardgrass [2, 14] | Plant response rating, Ducksalad [3, 11] | Plant response rating, Ducksalad [3, 14] | Plant response rating, Corn (corn (Zea mays); [17]) | Plant response rating, Morningglory [5, 15] | Plant response rating, Morningglory [5, 16] | Plant response rating, Morningglory [5, 17] | Plant response rating, Morningglory [5, 18] | Plant response rating, Pigweed [8, 15] | Plant response rating, Pigweed [8, 16] | Plant response rating, Pigweed [8, 17] | Plant response rating, Pigweed [8, 18] | Plant response rating, Velvetleaf [9, 15] | Plant response rating, Velvetleaf [9, 17]
30: Plant response rating, Velvetleaf [9, 16]
10: Plant response rating, Wheat [7, 17]

Cc1nc(-c2ccc(Cl)cc2)nn1-c1c(O)cnn(C)c1=O [Compound 17]
15: Plant response rating, Rice (rice (Oryza sativa); [11])
50: Plant response rating, Barnyardgrass [6, 15] | Plant response rating, Wheat [7, 16] | Plant response rating, Wheat [7, 18]
0: Plant response rating, Rice (rice (Oryza sativa); [14]) | Plant response rating, Barnyardgrass [2, 11] | Plant response rating, Barnyardgrass [2, 12] | Plant response rating, Barnyardgrass [2, 13] | Plant response rating, Barnyardgrass [2, 14] | Plant response rating, Crabgrass, Large [4, 17] | Plant response rating, Corn (corn (Zea mays); [15]) | Plant response rating, Corn (corn (Zea mays); [17]) | Plant response rating, Morningglory [5, 15] | Plant response rating, Morningglory [5, 16] | Plant response rating, Morningglory [5, 17] | Plant response rating, Morningglory [5, 18] | Plant response rating, Wheat [7, 15] | Plant response rating, Pigweed [8, 15] | Plant response rating, Pigweed [8, 16] | Plant response rating, Pigweed [8, 17] | Plant response rating, Pigweed [8, 18] | Plant response rating, Velvetleaf [9, 15] | Plant response rating, Velvetleaf [9, 16] | Plant response rating, Velvetleaf [9, 17] | Plant response rating, Velvetleaf [9, 18]
100: Plant response rating, Barnyardgrass [6, 18]
30: Plant response rating, Sedge, Umbrella [1, 14]
70: Plant response rating, Sedge, Umbrella [1, 13] | Plant response rating, Crabgrass, Large [4, 18]
80: Plant response rating, Crabgrass, Large [4, 16] | Plant response rating, Foxtail, Giant [10, 15]
20: Plant response rating, Rice (rice (Oryza sativa); [12]) | Plant response rating, Wheat [7, 17]
40: Plant response rating, Rice (rice (Oryza sativa); [13]) | Plant response rating, Sedge, Umbrella [1, 11] | Plant response rating, Sedge, Umbrella [1, 12] | Plant response rating, Ducksalad [3, 11] | Plant response rating, Ducksalad [3, 12] | Plant response rating, Ducksalad [3, 14] | Plant response rating, Crabgrass, Large [4, 15] | Plant response rating, Corn (corn (Zea mays); [16]) | Plant response rating, Corn (corn (Zea mays); [18]) | Plant response rating, Barnyardgrass [6, 17] | Plant response rating, Foxtail, Giant [10, 17]
90: Plant response rating, Barnyardgrass [6, 16] | Plant response rating, Foxtail, Giant [10, 16] | Plant response rating, Foxtail, Giant [10, 18]
95: Plant response rating, Ducksalad [3, 13]

CSc1cc(-c2ccc(F)cc2)nn1-c1c(O)cnn(C)c1=O [Compound 23]
0: Plant response rating, Crabgrass, Large [4, 15] | Plant response rating, Crabgrass, Large [4, 17] | Plant response rating, Crabgrass, Large [4, 18] | Plant response rating, Corn (corn (Zea mays); [15]) | Plant response rating, Corn (corn (Zea mays); [17]) | Plant response rating, Morningglory [5, 15] | Plant response rating, Morningglory [5, 16] | Plant response rating, Morningglory [5, 17] | Plant response rating, Morningglory [5, 18] | Plant response rating, Barnyardgrass [6, 15] | Plant response rating, Barnyardgrass [6, 17] | Plant response rating, Wheat [7, 15] | Plant response rating, Wheat [7, 16] | Plant response rating, Wheat [7, 17] | Plant response rating, Wheat [7, 18] | Plant response rating, Pigweed [8, 15] | Plant response rating, Pigweed [8, 16] | Plant response rating, Pigweed [8, 17] | Plant response rating, Pigweed [8, 18] | Plant response rating, Velvetleaf [9, 15] | Plant response rating, Velvetleaf [9, 16] | Plant response rating, Velvetleaf [9, 17] | Plant response rating, Velvetleaf [9, 18]
80: Plant response rating, Foxtail, Giant [10, 16]
70: Plant response rating, Barnyardgrass [6, 16] | Plant response rating, Foxtail, Giant [10, 18]
10: Plant response rating, Barnyardgrass [6, 18]
20: Plant response rating, Crabgrass, Large [4, 16] | Plant response rating, Corn (corn (Zea mays); [16]) | Plant response rating, Corn (corn (Zea mays); [18]) | Plant response rating, Foxtail, Giant [10, 15] | Plant response rating, Foxtail, Giant [10, 17]
